We go through two compounds from US20240382552A1, “COMPOSITION FOR PREVENTING, AMELIORATING OR TREATING SLEEP DISORDER OR INSOMNIA, CONTAINING EXTRACT OF ROASTED CITRUS BYPRODUCT AS ACTIVE INGREDIENT” (priority 2021, published 2024).

Experiment [1] concerns mice to which a sleeping dose of pentobarbital (45 mg/kg, i.p.) was administered. Description: Pentobarbital-induced sleep test. Particulars: pentobarbital 45 mg/kg i.p. 45 min after oral sample; DH 30 mg/kg, lime extracts 100 mg/kg, lemon extracts 300 mg/kg; n=10.
The test system of experiment [2] is C57BL/6N mice. Description: Sleep architecture analysis (EEG/EMG). Format: in vivo. To be noted: Example 1 100 mg/kg, Example 2 300 mg/kg, zolpidem 10 mg/kg p.o. Here is the method:
After the accommodation period of 1 week, electrodes were inserted into the
C57BL/6N mice for measurement of electroencephalograms (EEGs) and electromyograms (EMGs). After anesthetizing the mouse with pentobarbital (50 mg/kg, i.p.), the head was fixed in a stereotaxic instrument. After incising the subcutaneous connective tissue, a mouse EEG/EMG Headmount (Pinnacle Technology Inc, Oregon, USA) was inserted for EEG and EMG recording. After fixing with dental cement followed by suturing and disinfection, antibiotics were injected for 3 days to prevent inflammation. The mice were allowed to recover for 7 days. For accommodation to the measurement environment, the recording apparatus was connected from 4 days prior to the measurement. After orally administering the sample and waiting for 5 minutes for sedation, EEG and EMG were recorded for 24 hours from 17:00 using PAL-8200 (Pinnacle Technology Inc., Oregon, USA). Sampling rate was set at 200 Hz (epoch time: 10 s). Filtering range was 0.1-25 Hz for EEG and 10-100 Hz for EMG. Sleep architecture was analyzed according to the fast Fourier transform (FFT) algorithm using SleepSign (Ver. 3.0, Kissei Comtec, Nagono, Japan).
Sleep architecture analysis was conducted to evaluate the effect of the roasted citrus byproduct extracts according to an exemplary embodiment of the present disclosure on the quantity and quality of sleep. […]

Molecules are shown by their SMILES. Where a name gives a salt, the structure may show the parent alone. Marks after values point to notes of the source that are not given here.

`CN(C)CCC=C1c2ccccc2COc2ccccc21` [Doxepin hydrochloride (DH), Doxepin hydrochloride]: in experiment [1], the “Sleep duration (min)” value is on record as 121.2*** min and the “Sleep latency (min)” value is 2.9*** min.

As for `Cc1ccc(-c2nc3ccc(C)cn3c2CC(=O)N(C)C)cc1` [zolpidem], the “delta activity during non-REM sleep” value in experiment [2] was “significantly decreased delta activity”. Besides, the “time after oral administration for which NREM sleep was significantly increased” value in experiment [2] (24 h EEG recording) worked out at 6 h.
